Measurements from patent US9068228B2, “Method for screening ameliorants of dry skin caused by atopic dermatitis using bleomycin hydrolase activity as indicator” (Shiseido Company, Ltd., priority 2009, dated 2015).
Entries after “also recorded” stand apart in the source; their conditions may differ.

Assays:
Assay type in all cases: cell-based, human
[1] = tested on: bleomycin hydrolase mRNA; assay: Effect of cytokines on bleomycin hydrolase mRNA expression by quantitative PCR (Experiment 5, FIG. 14); conditions: proliferative stage cultured keratinocytes, incubated 24 hours; IL-4 and TNF-α 0.1-10 ng/ml, IFN-γ 1.0-100 ng/ml
Method: (§1) Normal human epidermal keratinocytes derived from neonatal epidermis (Kurabo, Osaka, Japan) were cultured in EpiLife medium (Cascade Biologics, Portland, Oreg.) containing low-concentration (0.03 mM) calcium and HKGS Growth Supplement (Cascade Biologics). All cells were incubated at 37° C. while supplying 5% CO2 and were used within 4 passages. Cells were collected at 70% confluence, 100% confluence, 2 days after confluence and 2 days after confluence in 2 mM calcium.
The expression level of bleomycin hydrolase in keratinocytes was measured by quantitative PCR using the method described below. Measurement was carried out using the Light Cycler 480 (Roche Diagnostics GmbH, Mannheim, Germany), while Light Cycler FastStart DNA Master CYBR Green I was used for the reagent. 0.6 μl aliquots of each of the following bleomycin hydrolase primers and […] of water were added to 10 μl of SYBR Green I master mix to bring to a total volume of 20 μl followed by carrying out 45 cycles of PCR consisting of 15 seconds at 95° C., 20 seconds at 55° C. and 20 seconds at 72° C. The results obtained were corrected by comparing with the results for a housekeeping gene in the form of G3PDH. • Forward primer: […] (SEQ ID NO. 1) • Reverse primer: […] (SEQ ID NO. 2)
IL-4 (final concentration: 0.1, 1.0 or 10 ng/ml), TNF-α (final concentration: 0.1, 1.0 or 10 ng/ml) and IFN-γ (final concentration: 1.0, 10 or 100 ng/ml) were respectively added to proliferative stage cultured keratinocytes, and after incubating for 24 hours, RNA was collected using Isogen. Expression of bleomycin hydrolase mRNA was measured by quantitative PCR. Based on the results shown in FIG. 14, interleukin-4 (IL-4), which is a type of Th2 cytokine, was determined to down-regulate expression of bleomycin hydrolase.

[2] = tested on: BH promoter; assay: BH promoter luciferase assay in transfected keratinocytes (FIG. 20B)
Method: The graphs indicate the effects of cytokines Th1, Th2 and Th17 on BH gene expression. […] The graphs indicate BH promoter activity in cultured keratinocytes in the presence of IFN-γ. Keratinocytes were transfected with pGL3-216 containing intact IRF-1/2 binding sites of BH promoter regions followed by treating for 24 hours with IFN-γ (upper panel). Keratinocytes were transfected with ΔpGL3-616 (IRF-1/2 deletion mutants) followed by treating for 24 hours in the presence or absence of IFN-γ or IL-4 at 10 ng/ml (lower panel). […] Keratinocytes were transfected with siRNA (40 nM) of IRF-1 or IRF-2 followed by culturing for 24 hours, treating with IFN-γ at 10 ng/ml and isolating RNA after further culturing for 24 hours. The panel on the right indicates the silencing effects of IRF-1 and IRF-2.
Keratinocytes were cultured in a 12-well tissue culture plate at a density of 5×10^4 cells/well, and were transfected using FuGene HD Transfection reagent (Roche Diagnostics, Basel, Switzerland) and 1 μg aliquots of each construct. […] Luciferase activity was analyzed using the Dual Luciferase Reporter Assay System (Promega) and Autolumat Plus Luminometer (Berthold Technologies, Bad Wildbad, Germany). […]

[3] = tested on: BH mRNA; assay: Real-time RT-PCR analysis of BH gene expression under cytokines (Experiment 6, FIG. 20A); conditions: proliferative keratinocytes, 24 hours, ratio to untreated control
Method: as §1
(§2) The transcription levels of BH and related factors were analyzed by quantitative real-time RT-PCR. Total RNA was extracted from cultured cells using Isogen (Nippon Gene, Tokyo, Japan) in accordance with the manufacturer's protocol. The total RNA was reverse-transcribed to cDNA using SuperScript™ II (Invitrogen, Carlsbad, Calif.). Real-time RT-PCR was carried out with the LightCycler Raid Cycler System using the LightCycler 480 SYBR Green I Master (Roche Diagnostics) in accordance with the manufacturer's protocol. Glyceraldehyde 3-phosphate dehydrogenase (GAPDH) was used as a reference gene. Specificity of the amplified fragments was confirmed by quantitative analysis of melting curves using LightCycler analytical software. The amounts of mRNA were standardized based on the mRNA of GAPDH and finally indicated as a ratio to mRNA of an untreated control.
Since BH is an NMF-generating enzyme, it has the potential to be involved in the pathophysiology of AD. Accordingly, an investigation was made of the effects of cytokines Th1, Th2 and Th17 on BH gene expression. […] Similar results were obtained with differentiated keratinocytes (data not shown). A promoter assay was carried out in order to determine the role of IFN-γ in regulation of BH gene expression, and response elements were specified. […] In addition, IRF-1 and IRF-2 gene expression was inhibited using small interfering RNA (siRNA) in order to determine whether or not IRF-1/2 is an essential mediator of IFN-γ-induced down-regulation of BH.

[4] = tested on: IRF-2; assay: Real-time RT-PCR of transcription factor expression under cytokines (FIG. 22)
Method: as §2
(§3) An investigation was made of the cytokine-dependent regulation of these transcription factors.

[5] = tested on: IRF-1 mRNA; assay: as above
Method: as §2, §3

[6] = tested on: MZF-1; assay: as above
Method: as §2, §3

[7] = tested on: Sp-1; assay: as above
Method: as §2, §3

[8] = cultured keratinocytes, concentration not given

Row | Substance | expression of bleomycin hydrolase mRNA [1] | BH promoter activity after deletion of IRF-1/2 binding sequence ([2]; keratinocytes transfected with IRF-1/2 deletion mutant, 10 ng/ml, 24 hours) | BH promoter activity ([2]; proliferative keratinocytes transfected with pGL3-BH-616 containing IRF-1/2 binding sequence, IFN-γ 24 hours) | expression of BH mRNA [3] | expression of BH mRNA ([3]; listed as IFN) | expression of IRF-2 ([4]; in the presence of IFN-γ) | expression of IRF-1 mRNA ([5]; IFN-γ, dose-dependent) | expression of IRF-2 ([4]; IL-4 at 100 ng/ml only) | expression of MZF-1 ([6]; IL-4 at 10 ng/ml) | expression of MZF-1 [6, 8] | expression of IRF-1 ([5]; IL-4 at 100 ng/ml only) | expression of Sp-1 ([7]; IL-4 at 10 ng/ml) | expression of Sp-1 [7, 8]
1 | IFN-γ: Human IFN-γ purchased from Peprotech EC; Th1 cytokine | significantly increases | no longer inhibited | down-regulated | down-regulated; also recorded: remarkably decreased | significantly decreased | up-regulated | strongly up-regulates |  |  |  |  |  | 
2 | IL-4: Human IL-4 purchased from Peprotech EC; Th2 cytokine | down-regulates |  |  | did not demonstrate any direct action whatsoever |  |  |  | significantly enhanced | most effectively down-regulated | significantly inhibited; also recorded: down-regulated | significantly enhanced | most effectively down-regulated | significantly inhibited; also recorded: down-regulated
3 | IL-13: Human IL-13 produced by R&D Systems Inc.; Th2 cytokine |  |  |  | did not demonstrate any direct action whatsoever |  |  |  |  |  | significantly inhibited |  |  | significantly inhibited
4 | TNF-α | significantly increases |  |  |  |  |  |  |  |  |  |  |  | 
